Activity calls are given as the source filed them. How the calls were made is not given here.

In this assay the test system is Trypanosoma brucei growth inhibition, luminescence. Nature of the assay: antitrypanosomal activity against T. brucei – luminescence (AID 1159562).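 Further: parasites grew with compound for 24 h before the luminescence read.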
Turning to `CN(C)S(=O)(=O)c1ccc(Cl)c(C(=O)Nc2nc(-c3ccccn3)cs2)c1`, the IC50 is 400 nM.

For the molecule `CC(C)c1cc(C(=O)N2CCCC(c3cc4ncccc4[nH]3)C2)on1` (centres undefined), the IC50 is > 40000 nM (inactive).

Take `Cn1cc(CN2CCN(c3ccc4c(c3)CCN(C(=O)[C@H]3C[C@@H]3c3ccccc3)CC4)CC2)cn1`: the IC50 is 40000 nM.

Turning to `c1ccc2[nH]c(-c3ccc(N4CCCC4)nc3)nc2c1`, the IC50 was 1000 nM.

In the case of `CC(=O)Nc1ccc(Nc2nccc(-c3cnn4ncccc34)n2)cc1C(F)(F)F`, the IC50 was 50 nM.

As to `CCOc1ccc2nc(NC(=O)c3ccc([N+](=O)[O-])s3)sc2c1`, the IC50 is 2500 nM.

Consider `Cc1ncsc1CNc1cnc(-c2ccc3c(c2)OCCO3)c(-c2cnn(C)c2)c1`, for which the IC50 is 200 nM.

In the case of `CN(Cc1nc2c(C(=O)N3CCN(Cc4ccccc4)CC3)cccc2[nH]1)C1CCCc2cccnc21` (centres undefined), the IC50 is 1000 nM.

Regarding `c1ccc(-c2nc(NCc3ccco3)c3ccccc3n2)nc1`, the IC50 is 6300 nM.

`CS(=O)(=O)c1cccc(CNC(=O)c2cncc(N3CCN(c4ccc(F)cc4)CC3)c2)c1`: the IC50 is > 40000 nM (inactive).

As to `Cc1c(C(=O)NCCCCn2ccnc2)oc2c(C)cccc12`, the IC50 is > 40000 nM (inactive).

On to `COc1cccc(NS(=O)(=O)c2ccc3[nH]cc(C(=O)NCCC(C)C)c(=O)c3c2)c1`, for which the IC50 is 630 nM.

`CC(C)(C)C(=O)NCCc1csc(-c2ccc(F)cc2)n1`: the IC50 was 790 nM.

For the molecule `O=C(c1cccc(Nc2ncc(-c3ccc4c(c3)OCO4)cn2)c1)N1CCOCC1`, the IC50 is > 50000 nM (inactive).

Turning to `CS(=O)(=O)c1ccc(Nc2nccc(-c3cnn4ncccc34)n2)cc1`, the IC50 was 200 nM.

With `COc1ccc(-c2cnc(NC(=O)c3ccc(F)cc3)n2C)cc1`, the IC50 is 3200 nM.

For the molecule `Cc1ccccc1NS(=O)(=O)c1ccc2[nH]cc(C(=O)NC3CCCCC3)c(=O)c2c1`, the IC50 is 320 nM.

Regarding `N#Cc1c(Oc2cccc(Cl)c2)cccc1[N+](=O)[O-]`, the IC50 was 5 nM.

Consider `O=C1NCCn2ccc(Nc3nc(NC4CCC(O)CC4)ncc3Cl)c21` (centres undefined), for which the IC50 was 630 nM.

Consider `OCCCNc1nc(Nc2ccncc2)nc2ccccc12`, for which the IC50 was > 40000 nM (inactive).

Turning to `O=c1[nH]ccc2ccc(-c3ccncc3)cc12`, the IC50 is > 40000 nM (inactive).

For `Cc1ccc2c(c1)SC(C(=O)Nc1n[nH]c(-c3ccccn3)n1)C2` (centres undefined), the IC50 is > 40000 nM (inactive).

`Clc1ccc(C(CC2CCCCO2)Cn2cncn2)c(Cl)c1` (centres undefined): the IC50 was > 40000 nM (inactive).

Regarding `NS(=O)(=O)c1ccc(Nc2ncc3cccc(OC4CCNCC4)c3n2)cc1`, the IC50 is 320 nM.

In the case of `O=C(NC1C(=O)N(c2ccccc2)C1c1cccnc1)c1ccc(Cl)s1` (centres undefined), the IC50 is > 40000 nM (inactive).

With `N#Cc1cccc(Cc2cc(Nc3cc(C4CC4)[nH]n3)nc(N3CC[C@H]3C(N)=O)n2)c1`, the IC50 is 63 nM.

Take `CCOc1ccc(CN(C)Cc2nc(N)nc(Nc3ccc(C)cc3)n2)cc1`: the IC50 is 2000 nM.

For `O=[N+]([O-])c1ccc(-c2nnn(-c3cccnc3)n2)o1`, the IC50 is 500 nM.

`O=C1CN(Cc2ccco2)C2CS(=O)(=O)CC2N1c1ccc(Cl)cc1` (centres undefined): the IC50 is 250 nM.

Regarding `O=C(NCC1CCCCC1)c1cnns1`, the IC50 is 1300 nM.

For the molecule `COc1cccc(S(=O)(=O)Nc2ccc3c(c2)CC(N2CCC(NC(=O)C4CC4)CC2)C3)c1` (centres undefined), the IC50 is 790 nM.

Regarding `COc1ccnc2[nH]cc(-c3cc(C(=O)N[C@H](CO)c4ccccc4)co3)c12`, the concentration for half-maximal inhibition (IC50) was 13 nM.

For `O=C(c1cccc(Nc2ncc(-c3ccc4c(c3)OCO4)cn2)c1)N1CCSC1`, the IC50 is > 40000 nM (inactive).

For the molecule `O=C(Nc1ccccc1)Nc1nc(-c2ccccn2)cs1`, the IC50 is 1000 nM.

In the case of `COc1ccccc1CNc1cc(C2CC2)nc(-c2nccn2C)n1`, the IC50 was 2000 nM.

Consider `COc1ccc(CN2C(=O)C(O)(CC(=O)c3ccncc3)c3cc(Br)ccc32)cc1OC` (centres undefined), for which the IC50 was 630 nM.

Take `CC(C)c1nn(-c2nc(N)nc(-c3ccccn3)n2)c(N)c1C1CCCCC1`: the IC50 was 7900 nM.

Take `O=C(NCCc1cccnc1)c1csc(-c2ccccc2)n1`: the IC50 was > 40000 nM (inactive).

`COc1ccc2ncc(F)c(NC(=O)C3(O)CCC(NCc4ccc5c(c4)OCCO5)CC3)c2n1` (centres undefined): the IC50 is 1600 nM.

On to `O=C(Nc1cccc(Cl)c1)N1CCCCC1c1cccnc1` (centres undefined), for which the IC50 is > 40000 nM (inactive).

As for `O=C(Nc1nc(-c2ccccn2)cs1)C1CCc2ccccc2C1` (centres undefined), the IC50 is 3200 nM.

`Cc1ccc(C)c(-n2nnnc2Sc2nc([N+](=O)[O-])nn2C)c1`: the IC50 was 16000 nM.

Consider `COc1ccc([N+](=O)[O-])cc1NC(=O)c1cc(Cl)ccc1O`, for which the IC50 is 25000 nM.

With `CCN(CC)S(=O)(=O)c1ccc(C)c(NC(=O)c2cc(Cl)c3c(c2)OCO3)c1`, the half-inhibitory concentration (IC50) is 160 nM.

As for `C=CCOCC1Cn2nc([N+](=O)[O-])nc2O1` (centres undefined), the IC50 was > 40000 nM (inactive).

`CCC(CC)C(=O)Nc1cccc(C(=O)Nc2nnc(C3CCCCC3)s2)c1`: the IC50 is 630 nM.

`O=C(N[C@H](CO)c1ccccc1)c1ccc(-c2c[nH]c3nccc(C(F)(F)F)c23)s1`: the IC50 is 400 nM.

For `Oc1cccnc1-c1n[nH]c(Cc2ccccc2)n1`, the IC50 is 10000 nM.

Turning to `Cc1nc(C(=O)Nc2ccc3c(c2)OCO3)nn1-c1ccc(Cl)cc1`, the IC50 was > 40000 nM (inactive).

With `Cn1nccc1NC(=O)Cn1ccc(-c2ccncc2)n1`, the IC50 was 630 nM.

As for `CC(C)CC(=O)NC(c1cccs1)c1ccc2cccnc2c1O` (centres undefined), the IC50 was 630 nM.

With `O=C(N1CCc2ccccc2CC1)C1(C(=O)N2CCC(n3c(=O)[nH]c4ncccc43)CC2)CC1`, the IC50 is > 40000 nM (inactive).

Regarding `O=C(Nc1nc2cc(Cl)ccc2o1)c1cccc(Cl)c1`, the concentration for half-maximal inhibition (IC50) was 790 nM.

Take `CCCCc1cc(Nc2cc(C3CCC3)[nH]n2)nc(N2CCC2C(N)=O)n1` (centres undefined): the IC50 is 160 nM.

As to `CCCNC(=O)Nc1cccc(-c2nc3ncccc3o2)c1`, the IC50 is 1000 nM.

For `O=C(NCc1nnc2n1CCCCC2)c1ccc(-c2ccc(F)cc2)o1`, the IC50 is 250 nM.

Take `Cc1cc(NC(=O)c2ccc([N+](=O)[O-])s2)ccc1Br`: the IC50 is 5000 nM.

`Cc1ccc2ccc(C(Nc3ccccn3)c3cccnc3)c(O)c2n1` (centres undefined): the IC50 was 4000 nM.

In the case of `CC(Cn1ccnc1)NC(=O)COc1ccc(Cl)c(Cl)c1` (centres undefined), the IC50 was > 40000 nM (inactive).

With `O=C(c1cccc(Cl)c1Cl)N1CCn2c1nc(-c1ccncc1)cc2=O`, the IC50 is 32000 nM.

Regarding `Cc1cccnc1CN1CCN(CCCOc2ccc(-c3ccc(C(N)=O)cc3)cc2)CC1`, the IC50 was > 40000 nM (inactive).

Take `COc1cc(F)c2ncc(F)c(CCN3CC[C@H](NCc4cc5c(cn4)OCS5)[C@@H](O)C3)c2c1`: the IC50 was 500 nM.

Regarding `COc1ccc(Nc2nc(-c3ccccn3)cs2)c(OC)c1`, the IC50 is 25000 nM.

As for `Cc1cn[nH]c1C1CCCN(Cc2nc3ccccc3n2C)C1` (centres undefined), the IC50 is 7900 nM.

For the molecule `OC[C@@H](Nc1nccc(-c2c(-c3ccc(F)cc3)ncn2C2CCNCC2)n1)c1ccccc1`, the IC50 is 630 nM.

Take `CS(=O)(=O)c1ccc(CC(=O)Nc2nc(-c3ccc(Cl)s3)cs2)cc1`: the IC50 is > 40000 nM (inactive).

In the case of `Cc1nc(C(=O)Nc2ccc3c(c2)OCO3)nn1-c1ccc(F)cc1`, the IC50 is > 40000 nM (inactive).

For `c1ccc(-c2nc(NC3CCCC3)c3ccccc3n2)nc1`, the IC50 was 6300 nM.

As to `CNc1cncc(C2CCCN2C(=O)Cc2ccc3ccccc3c2)n1` (centres undefined), the IC50 was > 40000 nM (inactive).

As to `O=C1CN(C2CCCc3c(OCc4ccncc4)cccc32)C(=O)N1C1CCCCC1` (centres undefined), the IC50 is > 40000 nM (inactive).

Turning to `CS(=O)(=O)NC1CCC(Nc2ncc(Br)c(Nc3ccccc3C(N)=O)n2)CC1` (centres undefined), the IC50 is 79 nM.

On to `O=C(Nc1ccc(C(F)(F)F)cc1)Nc1cccc([N+](=O)[O-])c1`, for which the IC50 was 2000 nM.

As for `CCS(=O)(=O)Nc1ccc(C2=NN(C(=O)c3cccs3)C(c3ccccc3OC)C2)cc1` (centres undefined), the IC50 is 16000 nM.

Consider `COc1ccc(Nc2nc(-c3ccccn3)cc(N3CCCC(O)C3)n2)cc1` (centres undefined), for which the IC50 was 13000 nM.

For the molecule `NC(=O)c1ncccc1Nc1nc(NC2CCC(O)CC2)ncc1Br` (centres undefined), the IC50 is 630 nM.

`CNS(=O)(=O)c1ccccc1Nc1nc(Nc2cc(C)nn2C)ncc1Cl`: the IC50 is 100 nM.

Turning to `Cc1cc(C)nc(N2CCC(N(Cc3cccnc3)C(=O)c3cccc(C#N)c3)CC2)n1`, the IC50 was > 40000 nM (inactive).

For the molecule `Cc1cc(C)n(-c2nc(NC(C)C)nc(NC(C)(C)C)n2)n1`, the IC50 was 13000 nM.

As for `Cc1ccc(Nc2nc(-c3ccccn3)cc(N3CCCC(O)C3)n2)cc1` (centres undefined), the IC50 was 3200 nM.

Regarding `COc1cccc(-c2c(C)nn(-c3nc(N)nc(-c4ccccn4)n3)c2N)c1`, the IC50 is > 40000 nM (inactive).

As to `CC1=NN(C(=O)CCn2cnc([N+](=O)[O-])n2)C(O)(C(F)(F)F)C1` (centres undefined), the IC50 was > 40000 nM (inactive).

Regarding `COc1ccc(S(=O)(=O)Nc2ccccc2OC)cc1NC(=O)CCCc1c[nH]c2ccccc12`, the IC50 is 32000 nM.

As to `O=C(Cn1cnc2cc([N+](=O)[O-])ccc2c1=O)NCCc1ccc(Cl)cc1Cl`, the IC50 is > 40000 nM (inactive).

On to `CC(C)(C)CC(=O)NCc1noc(COc2ccccc2)n1`, for which the IC50 was 790 nM.

For the molecule `Cc1ccc(S(=O)(=O)Nc2ccc(CN3CCN(C(=O)c4cccc(C)c4)CC3)cc2)cc1`, the IC50 was 500 nM.

Consider `N#Cc1cccc(Nc2nccc(N3CCC(NS(=O)(=O)c4cccc(C#N)c4)CC3)n2)c1`, for which the IC50 is 6300 nM.

Regarding `C[C@@H](Oc1cc(-n2cnc3ccc(O[C@H]4CCNC4)cc32)sc1C(N)=O)c1ccccc1Cl`, the IC50 is 790 nM.

For the molecule `CC(C)Oc1cccc(N2CCC(C(=O)N3CCCN(C(C)C)CC3)CC2)c1`, the IC50 is > 40000 nM (inactive).

With `COc1ccc(-c2nc3ccncc3c(=O)n2CCOc2ccccc2)cc1`, the IC50 is 32000 nM.

As to `N#Cc1cc([N+](=O)[O-])ccc1NC1CCCCCC1`, the IC50 was 3200 nM.

With `Cc1ccccc1CNC(=O)CN(Cc1ccccn1)Cc1ccccn1`, the IC50 was 20000 nM.

Regarding `CCC(c1ccc(F)cc1)n1cncc1-c1cnn(C)c1` (centres undefined), the IC50 was > 40000 nM (inactive).

`CNC(=O)C1Cc2ccccc2N1C(=O)Cc1ccccc1` (centres undefined): the IC50 is 1000 nM.

For `CC(C)C[C@H](NC(=O)c1csc(-c2cccs2)n1)C(=O)NC1(C#N)CC1`, the IC50 was 100 nM.

As usually defined, the IC50 is the concentration at which inhibition is half-maximal.

These data come from PubChem BioAssay AID1159562 (GlaxoSmithKline (GSK), 2015).
